The nature of series [1]: In vitro serum stability of 177Lu-radiolabeled bimodal chelator complexes. Format: in vitro ADME. To be noted: 177Lu complex, human serum, pH 7, 37° C.
Series [2] in a line: EDTA challenge of 64Cu-radiolabeled complexes of chelators A-F. Type of series: physicochemical. The note with it: EDTA 100-fold molar excess; for Bound complex (%): 64Cu complex, 37° C. As for the experimental part: ^64Cu-radiolabeled complexes were further evaluated for complex stability based on EDTA challenge. ^64Cu-radiolabeled complexes were freshly prepared and treated with a solution of EDTA at a 100-fold molar excess, and the resulting solution (pH 5.5) was incubated at 37° C. for 24 h. […] Among the complexes tested, ^64Cu-radiolabeled pentadentate chelator B was least tolerant of EDTA treated, and most of ^64Cu was dissociated from the complex (˜80%) at 24 h time point. ^64Cu-radiolabeled chelator C containing the carbonyl donor group was found dissociated rapidly in the presence of the excess EDTA, and 50% of the activity was transchelated by EDTA at 1 h time point. ^64Cu-radiolabeled chelators D and F with the respective hydroxyl and thiophenyl donor group were slower in dissociation than ^64Cu-radiolabeled chelators B and C and released >45% of ^64Cu at 24 h time point. Dissociation of the activity from the ^64Cu-radiolabeled chelators was also measured using radio-HPLC at 25 h time point (FIG. 5). The peak related to ^64Cu-EDTA (tR=2.5 min) was clearly separated from bound ^64Cu complex of the chelators. ^64Cu-radiolabeled complex of polar chelators E and F have the respective retention time at […] and 6.2 min, while other ^64Cu-radiolabeled complexes have similar retention time (tR=7˜8 min). The ^64Cu-radiolabeled chelators C and D gave a small peak (tR=˜3 min and tR=˜7 min, respectively).
^64Cu-radiolabeled complexes were prepared by reaction of each chelator (20 μg) with ^64Cu (60 μCi) in 0.25M NH4OAc buffer (pH 5.5) for 2 h at room temperature. The radiolabeled complexes were prepared as described above and directly used for the experiments. ^64Cu-radiolabeled complex was mixed with EDTA at a 100-fold molar excess. The resulting mixture was incubated for 24 h at 37° C. The stability of ^64Cu-radiolabeled complexes in the solution was evaluated using ITLC (20 mM EDTA in 0.15M NH4OAc). A solution of the radiolabeled complex in serum (3˜20 μL) was withdrawn at the designated time points and evaluated by ITLC as described above. Stability of the complexes was also evaluated at 25 h time point by HPLC (solvent A: 0.1% TFA in H2O, solvent B: 0.1% TFA in CH3CN, 0-100% B/15 min, flow rate: 1 mL/min). ^64Cu-EDTA complex was eluted early (tR=˜2.5 min), while ^64Cu-radiolabeled complexes of chelators A-D, E, and F have the respective retention time (tR=7˜8 min, tR=4.6 min, and tR=6.2 min).

A short description of series [3]: Serum stability of 64Cu-radiolabeled complexes of pyridyl chelators. Format: in vitro ADME. The note with it: 64Cu complex, human serum, 37° C. As for the experimental part: In vitro serum stability of the radiolabeled complexes was performed to determine if the chelators radiolabeled with ^64Cu remained stable without loss of the radioactivity in human serum as described above. All ^64Cu-radiolabeled chelators remained intact in human serum for 2 days as evidenced by ITLC and HPLC analysis.

Series [4] can be described thus: EDTA challenge of 177Lu-radiolabeled pyridyl chelators. To be noted: 37° C.; for stability of 177Lu complex in EDTA solution: EDTA 100-fold molar excess, 24 h; for Bound (%): Lu-177 complex, EDTA solution 100-fold molar excess. Format: physicochemical. As for the experimental part: (§1) ^64Cu- or ^177Lu-radiolabeled complexes were prepared by reaction of each chelator (20 μg) with ^64Cu or ^177Lu (60 μCi) in 0.25M NH4OAc buffer (pH 5.5) for 2 h at room temperature. The radiolabeled complexes were prepared as described above and directly used for the experiments. The radiolabeled complex was mixed with EDTA at a 100-fold molar excess. The resulting mixture was incubated for 24 h at 37° C. The stability of ^64Cu-radiolabeled complexes in the solution was evaluated using ITLC (20 mM EDTA in 0.15M NH40OAc).

Series [5] is described as follows: EDTA challenge of 64Cu-radiolabeled pyridyl chelator. Format: physicochemical. To be noted: 37° C.; for Bound (%): Cu-64 complex, EDTA solution 100-fold molar excess. As for the experimental part: as §1
Series [6] in a line: In vitro serum stability of 90Y-radiolabeled bimodal chelator complexes. Type of series: in vitro ADME. The note with it: 90Y complex, human serum, pH 7, 37° C. Here is the method:
Human serum was purchased from Gemini Bioproducts (#100110). The radiolabeled complexes was prepared and directly used for serum stability studies without further purification. The stability of the pure radiolabeled complexes in human serum was evaluated at 37° C. for 2 weeks. The serum stability of the radiolabeled complexes was assessed by measuring the transfer of the radionuclide from each complex to serum proteins using ITLC (acetonitrile/water (3:2 v/v). A solution of the radiolabeled complex in serum (5-16 μL for ITLC) was withdrawn at the designated time point and evaluated by ITLC. At each of the time points, the percentage of ^90Y released from each of the radiolabeled complexes into serum was assessed by ITLC.

The values below come from patent publication US10441669B2, “Multifunctional chelators, complexes, and compositions thereof, and methods of using same” (ILLINOIS INSTITUTE OF TECHNOLOGY, priority 2013, dated 2019).

On to `O=C(O)CN(CCN1CCN(CCN(CC(=O)O)CC(=O)O)CCN(CC(CCCc2ccc([N+](=O)[O-])cc2)N(CC(=O)O)CC(=O)O)CC1)CC(=O)O` (stereo not drawn) [Chelator 2, 2-{[2-(4-{2-[bis(carboxymethyl)amino]-5-(4-nitrophenyl)pentyl}-7-{2-[bis(carboxy-methyl)amino]ethyl}-1,4,7-triazonan-1-yl)ethyl](carboxymethyl)amino}acetic acid], for which the “Bound radiolabeled complex (%)” value in series [1] (0 hour) is recorded as 99.9 ± 0.0%.
On to `O=C(O)CN1CCN(CC(=O)O)CCN(CC(=O)CCc2ccc([N+](=O)[O-])cc2)CC1` [Chelator C, 2-[4-(carboxymethyl)-7-[4-(4-nitrophenyl)-2-oxobutyl]-1,4,7-triazonan-1-yl]acetic acid], for which the “Bound complex (%)” value in series [2] (pH 5.5, ITLC, 0 h) was 97.7 ± 0.2%; in series [2] (pH 5.5, ITLC, 1 h), 50.4 ± 0.4%; in series [2] (pH 5.5, ITLC, 4 h), 45.8 ± 1.5%; in series [2] (pH 5.5, ITLC, 19 h), 41.0 ± 0.4%; in series [2] (pH 5.5, ITLC, 24 h) it was 39.0 ± 0.2%; in series [2] (pH 5.5, radio-HPLC, 25 h) it was 21.7 ± 1.3%. In series [2] (1 h time point), the “64Cu activity transchelated by EDTA” value is given as 50%.
As for `O=C(O)CN1CCN(CCCc2ccc([N+](=O)[O-])cc2)CCN(CC(=O)O)CC1` [Chelator B, 2-[4-(carboxymethyl)-7-[3-(4-nitrophenyl)propyl]-1,4,7-triazonan-1-yl]acetic acid], the “Bound complex (%)” value is listed as 99.9 ± 0.1% in series [2] (pH 5.5, ITLC, 0 h); 90.4 ± 0.1% in series [2] (pH 5.5, ITLC, 1 h); 69.2 ± 0.3% in series [2] (pH 5.5, ITLC, 4 h); 22.9 ± 2.1% in series [2] (pH 5.5, ITLC, 19 h); 19.4 ± 1.1% in series [2] (pH 5.5, ITLC, 24 h); 11.9 ± 0.6% in series [2] (pH 5.5, radio-HPLC, 25 h). Also, in series [2] (24 h time point), the “64Cu activity dissociated from the complex / transferred to EDTA” value is given as about 80%.
In the case of `O=C(O)CN1CCN(CC(=O)O)CCN(CC(O)CCc2ccc([N+](=O)[O-])cc2)CC1` (stereo not drawn) [Chelator D, 2-[4-(carboxymethyl)-7-[2-hydroxy-4-(4-nitrophenyl)butyl]-1,4,7-triazonan-1-yl]acetic acid], the “Bound complex (%)” value in series [2] (pH 5.5, ITLC, 0 h) came out at 99.5 ± 0.3%; in series [2] (pH 5.5, ITLC, 1 h), 86.8 ± 0.7%; in series [2] (pH 5.5, ITLC, 4 h), 79.1 ± 0.4%; in series [2] (pH 5.5, ITLC, 19 h) it was 59.3 ± 0.0%; in series [2] (pH 5.5, ITLC, 24 h), 55.0 ± 0.6%; in series [2] (pH 5.5, radio-HPLC, 25 h), 41.0 ± 2.6%.
With `O=C(O)CN1CCN(CC(=O)O)CCN(Cc2cccs2)CC1` [Chelator F, 2-[4-(carboxymethyl)-7-(thiophen-2-ylmethyl)-1,4,7-triazonan-1-yl]acetic acid], the “Bound complex (%)” value in series [2] (pH 5.5, ITLC, 0 h) came to 100 ± 0.1%; in series [2] (pH 5.5, ITLC, 1 h) it was 95.7 ± 0.5%; in series [2] (pH 5.5, ITLC, 4 h), 87.5 ± 0.4%; in series [2] (pH 5.5, ITLC, 19 h), 59.5 ± 0.6%; in series [2] (pH 5.5, ITLC, 24 h), 53.4 ± 1.7%; in series [2] (pH 5.5, radio-HPLC, 25 h), 42.3 ± 0.3%.
In the case of `O=C(O)CN1CCN(CCN(CC(=O)O)Cc2ccccn2)CCN(CC(=O)O)CC1` [Chelator 4], the “Bound complex (%)” value in series [3] (pH 7, HPLC, 0 hour) was “(99.9 ± 0.0) %”; in series [3] (pH 7, HPLC, 19 hour) it was “(99.9 ± 0.07) %”; in series [3] (pH 7, HPLC, 48 hour) it was “(100.0 ± 0.0) %”; in series [3] (pH 7, ITLC, 0 hour), 99.9 ± 0.0%; in series [3] (pH 7, ITLC, 19 hour), 100 ± 0.0%; in series [3] (pH 7, ITLC, 48 hour), 100 ± 0.07%. Besides, the “stability of 177Lu complex in EDTA solution” value in series [4] is reported as “remained stable in EDTA solution without releasing significant amount of the radioactivity”. In addition, the “Bound (%)” value is listed as 99.8% in series [4] (pH 5.5, 0 hour); 99.5% in series [4] (pH 5.5, 1 hour); 99.2% in series [4] (pH 5.5, 6 hour); 98.3% in series [4] (pH 5.5, 24 hour).
Turning to `NCCCNC(=O)c1ccc(CN2CCN(CC(=O)O)CCN(CC(=O)O)CC2)nc1` [Chelator 13], the “Bound complex (%)” value in series [3] (pH 7, HPLC, 0 hour) is on record as “(100 ± 0.0) %”; in series [3] (pH 7, HPLC, 19 hour), “(100 ± 0.0) %”; in series [3] (pH 7, HPLC, 48 hour), “(100 ± 0.0) %”; in series [3] (pH 7, ITLC, 0 hour), 100.0 ± 0.07%; in series [3] (pH 7, ITLC, 19 hour), 100.0 ± 0.0^ %; in series [3] (pH 7, ITLC, 48 hour), 99.9 ± 0.07%. The “Bound (%)” value in series [5] (pH 5.5, 0 hour) was found to be 100 ± 0.07%; in series [5] (pH 5.5, 1 hour), 99.9 ± 0.07%; in series [5] (pH 5.5, 24 hour) it was 99.2 ± 0.42%. In addition, the “stability of 64Cu complex in EDTA challenge” value in series [5] (EDTA 100-fold molar excess, 24 h) is on record as “extremely stable in EDTA challenge”.
With `O=C(O)CN1CCN(CCN(CC(=O)O)CC(=O)O)CCN(CC(CCCc2ccc([N+](=O)[O-])cc2)N(CC(=O)O)CC(=O)O)CC1` (stereo not drawn) [Chelator 1], the “Bound radiolabeled complex (%)” value turned out to be 100 ± 0.07% in series [1] (0 hour); 100 ± 0.00% in series [1] (312 hour); 100 ± 0.00% in series [6] (0 hour); 98.9 ± 1.34% in series [6] (262 hour); 97.3 ± 2.92% in series [6] (286 hour); 97.2 ± 2.46% in series [6] (313 hour). Besides, the “Bound radiolabeled complex (%)” value in series [6] (336 hour) came out at 98.4 ± 0.67%.
In the case of `NCCCNC(=O)c1ccc(CN(CCN2CCN(CC(=O)O)CCN(CC(=O)O)CC2)CC(=O)O)nc1` [Chelator 10], the “Bound complex (%)” value is on record as “(98.3 ± 2.0) %” in series [3] (pH 7, HPLC, 0 hour); “(96.7 ± 0.0) %” in series [3] (pH 7, HPLC, 19 hour); “(97.2 ± 0.21) %” in series [3] (pH 7, HPLC, 48 hour); 99.9 ± 0.07% in series [3] (pH 7, ITLC, 0 hour); 99.8 ± 0.14% in series [3] (pH 7, ITLC, 19 hour); 99.9 ± 0.0% in series [3] (pH 7, ITLC, 48 hour). The “stability of 177Lu complex in EDTA solution” value in series [4] was “remained stable in EDTA solution without releasing significant amount of the radioactivity”. The “Bound (%)” value came out at 99.8% in series [4] (pH 5.5, 0 hour); 95.7% in series [4] (pH 5.5, 1 hour); 94.9% in series [4] (pH 5.5, 6 hour); 94.6% in series [4] (pH 5.5, 24 hour).
